These results are taken from US20220062240A1, “METHODS OF TREATING CANCER USING A CLK INHIBITOR” (BioSplice Therapeutics, Inc., priority 2018, published 2022).

Read-outs that look alike come from different tables or passages of the source.

Assay [1] deals with SRSF6 and SRSF5 phosphorylation in SW480 cells. Put plainly: SR phosphorylation immunoblot. In kind it is cell-based, human. Conditions: SW480, 1 hour. The method, then: FIG. 6A is an immunoblot showing phosphorylated SRSF6 and SRSF5 in SW480 cells treated as indicated for 1 hour. Total SRSF5 and R-actin blots were used as loading controls. The blots are representative of two experiments.
First, it was determined that CLK1, CLK2, and CLK3 localized into the nucleus, while CLK4 was predominantly detected in the cytoplasm (FIG. 5). […]. Zhou et al., Chromosoma 122, 191-207, 2013).
(§1) For indicated experiments, cells were pelleted by centrifugation and washed with PBS and protein from the cell pellet was fractionated into cytoplasmic and nuclear fractions using a NE-PER™Nuclear and Cytoplasmic Extraction Reagents kit containing Halt™ protease and phosphatase inhibitors (Thermo Fisher). Protein concentrations of the samples were quantified using the Pierce Micro BCA protein assay kit (Thermo Fisher). […] Primary antibodies were incubated overnight at 4° C., with GAPDH, Lamin B1 or β-actin being used as loading controls (refer to Table 19 for primary antibodies and dilutions used).
(A western blot detects proteins with antibodies after separation by electrophoresis.)

Assay [2] concerns SW480 cells. Put plainly: Wnt pathway gene (qRT-PCR) and protein (immunoblot) expression. In kind it is cell-based, human. The following applies: SW480, 24 hours, compared to DMSO. As for the experimental part:
Fold-change relative to DMSO is shown (n=3 biological replicates per group, Mean±SD, **P<0.01; ***P<0.001, student's two-tailed t-test).
FIG. 6D is an immunoblot showing Wnt pathway-related protein expression in SW480 cells treated as indicated for 24 hours. The proteins were separated into nuclear and cytoplasmic fractions. GAPDH and Lamin B1 represent cytoplasmic and nuclear protein loading controls, respectively. The blots are representative of two experiments.
FIG. 6E is an immunoblot showing Wnt pathway-related protein expression in SW480 cells treated as indicated for 48 hours. The proteins were separated into nuclear and cytoplasmic fractions. GAPDH and Lamin B1 represent cytoplasmic and nuclear protein loading controls, respectively. The blots are representative of two experiments.
The fold-change relative to DMSO is shown (n=3 biological replicates per group, Mean±SD, *P<0.05; **P<0.01; ***P<0.001, student's two-tailed t-test).
FIG. 7C is an immunoblot showing protein expression of hits identified in FIG. 7A. SW480 cells were treated as indicated for 24 hours and proteins were separated into nuclear and cytoplasmic fractions. GAPDH and Lamin B1 represent the cytoplasmic and nuclear protein loading controls, respectively. The blots are representative of two experiments.
as §1
Total RNA was isolated using RNeasy Plus mini kit (Qiagen) or MagMAX Total RNA kit (Thermo Fisher) as per the manufacturers' protocol. cDNA was synthesized using the iScript cDNA Synthesis Kit (Bio-Rad), followed before performing qRT-PCR. Reactions were then run on a real-time PCR system (CFX384; Bio-Rad). Relative gene expression was determined by normalizing to GAPDH using the ΔΔCt method.
Background: Quantitative PCR measures a nucleic acid by following its amplification.

In assay [3] the test system is nuclear speckles in SW480 cells. Nature of the assay: Nuclear speckle staining (phospho-SC35). The format is cell-based, human. The following applies: SW480, 6 hours, 0.3-10 μM. The method, then: […]. The cells were stained with a phospho-SC35 antibody (green) and a Hoechst 33342 nuclear stain (blue). Scale bar, 10 μm.
FIG. 9A is a set of representative immunofluorescence images (×100 magnification) of SW480 cells treated with indicated concentrations for 6 hours. The cells were stained with a phospho-SC35 antibody (green) and a Hoechst 33342 nuclear stain (blue). Scale bar, 10 μm.
[…]. After approximately 6 hr, cells were fixed and stained a phospho-SC35 antibody (Santa Cruz Biotechnology). Cells were then labelled with an Alexa-Fluor 488 secondary antibody (Thermo Fisher) containing DAPI (Thermo Fisher). Cells were imaged at 100× magnification.

The test system of assay [4] is Wnt responsive TOPflash reporter in SW480 colon cancer cells. Put plainly: TOPflash β-catenin/TCF-responsive reporter assay. In kind it is cell-based, human. The method, then: Human colorectal cancer cell line SW480, stably expressing the Wnt responsive TOPflash promoter linked to luciferase gene (TOPflash) was used along with SW480 stably expressing a control EF1a-Luciferase reporter gene (GenTarget #LVP434) as a counterscreen. […] Cells were plated at ˜10,000 cells/well and incubated for 40 hours. Luminescence was detected using Bright-Glo (Promega Corp.).
(In general: In a reporter assay the amount or activity of a reporter protein is the signal.)

Assay [5] has as its system SW480 cells. Put plainly: Cell viability assay in SW480 cells (Compound 12, CC-671, Harmine). The format is cell-based. Conditions: Homo sapiens, SW480, 96 h, read-out: EC50 cell viability. The text has this:
The data is representative from three independent assays performed in quadruplicate.

As for `CNC(=O)c1ccc(Nc2nc(OC3CCCC3)c3c(-c4ccc5nc(C)oc5c4)c[nH]c3n2)c(OC)c1` [CC-671, reference compound], in assay [1], the “SR phosphorylation (SRSF6, SRSF5)” value is given as “not as effective as Compound 12”. For the same compound, the “gene expression of AXIN2, LEF1, MYC, TCF7, CTNNB1 and TCF7L2” value in the assay with SW480 cells [2] is listed as “minimal effect”. Also, the “enlargement of nuclear speckles” value in assay [3] was “only at higher doses of 10 μM and 3 μM”.
In general, EC50 refers to the concentration that produces a half-maximal response. Turning to `COc1ccc2c(c1)[nH]c1c(C)nccc12` [Harmine], the “SR phosphorylation (SRSF6, SRSF5)” value in assay [1] was “not active”. Moreover, the “gene expression of AXIN2, LEF1, MYC, TCF7, CTNNB1 and TCF7L2” value with SW480 cells [2] is “minimal effect”. For the same compound, the EC50 (in assay [4] (Homo sapiens); in the assay with SW480 cells [5]) was over 10 µM throughout. Also, the “enlargement of nuclear speckles” value in assay [3] is reported as “not observed”.
Turning to `C[C@H]1[C@H]2N(C(=O)CN(C)N2C(=O)NCc2ccccc2)[C@@H](Cc2ccc(OP(=O)(O)O)cc2)C(=O)N1Cc1cccc2cccnc12` [PRI-724], the midpoint of the response in assay [4], the EC50, lay at 1.06 µM.
